Results reported in paper PMC4234445 (ACS Medicinal Chemistry Letters, 2014).
“Also recorded” adds a separate entry of the source.

Tests used:
MCL-1 = test: Western blot of STAT5 transcriptional target MCL-1 in K562 cells; assay type: cell-based, human; details: 24 h, 15 μM
MV-4;11 (FLT3-ITD) cells = test: CellTiter-Blue cell viability assay in MV-4; assay type: cell-based, human
pSTAT3 = test: Western blot of pSTAT3 in MDA-MB-231 cells; assay type: cell-based
MYC = test: Western blot of STAT5 transcriptional target MYC in K562 cells; assay type: cell-based, human; details: 5 h
[1] = system: healthy human CD34+ umbilical cord cells; test: Cell viability in healthy human CD34+ umbilical cord cells; assay type: cell-based
K562 cells = test: Western blot of apoptosis markers; assay type: cell-based, human; details: 24 h, 15 μM
JAK1/2, ABL, and FLT-3 = test: DiscoveRx KINOMEscan, upstream STAT5 activating kinases; assay type: binding; details: 5 μM
[2] = system: phosphorylated STAT5 (Y694); test: Western blot of phosphorylated STAT5; assay type: cell-based, human; details: K562 cells, 5 h treatment

SMILES: CC(C)(C)c1cc(CN(C(=O)CN(Cc2ccc(Cl)cc2)S(=O)(=O)c2c(F)c(F)c(F)c(F)c2F)c2ccc(C(=O)O)c(O)c2)cc(C(C)(C)C)c1 [13a]
- MCL-1 expression (MCL-1): complete knockdown
- cell viability of MV4-11 cells (MV-4;11 (FLT3-ITD) cells; 10 μM): abolished
- IC50 (MV-4;11 (FLT3-ITD) cells; Homo sapiens, MV4-11, 72 h, read-out: IC50, cell viability MV4;11): 3.5 µM
- pSTAT3 inhibition (pSTAT3; MDA-MB-231, doses corresponding to pSTAT5 inhibition in leukemic cell line): not inhibited
- effect on pSTAT3 (pSTAT3; MDA-MB-231 cells, up to 20 μM): no effect
- MYC (c-Myc) expression (MYC): dose-dependent decreases; also recorded: Knockdown
- difference in sensitivity CD34+ vs MV4-11 (therapeutic window) [1]: approximate order of magnitude
- cell viability of healthy CD34+ cells ([1]; 10 μM): little reduction in cell viability; also recorded: limited effect on cell viability
- cell death / apoptosis (cleaved PARP-1, Caspase-3) (K562 cells): undergo cell death; also recorded: Initiation of apoptosis
- effect against upstream STAT5 activating kinases JAK1/2, ABL, FLT-3 (JAK1/2, ABL, and FLT-3): negligible effects
- concentration at which pSTAT5 is ablated [2]: above 10 μM
- pSTAT5 (Y694) levels [2]: decreased pSTAT5 in a dose dependent manner
